From patent US8987471B2, “Substituted dihydropyrazoles as sphingosine receptor modulators” (Allergan, Inc., priority 2013, dated 2015)

Target: T1, human S1P1 receptor (Homo sapiens, UniProt P21453)
T1 construct: expressed in transfected cells; membranes used
Assay: GTP γ35S binding assay for S1P1 activity
Format: biochemical
Settings: membranes of cells stably expressing the S1P1 receptor, test concentrations 0.08 to 5,000 nM
Description: Compounds of the invention were tested for S1P1 activity using the GTP γ^35S binding assay. These compounds may be assessed for their ability to activate or block activation of the human S1P1 receptor in cells stably expressing the S1P1 receptor.
GTP γ^355 binding was measured in the medium containing (mM) HEPES 25, pH 7.4, MgCl2 10, NaCl 100, dithiothreitol 0.5, digitonin 0.003%, 0.2 nM GTP γ^355, and 5 μg membrane protein in a volume of 150 μl. Test compounds were included in the concentration range from 0.08 to 5,000 nM unless indicated otherwise. Membranes were incubated with 100 μM 5′adenylylimidodiphosphate for 30 min, and subsequently with 10 μM GDP for 10 min on ice. Drug solutions and membrane were mixed, and then reactions were initiated by adding GTP γ^355 and continued for 30 min at 25° C. Reaction mixtures were filtered over Whatman GF/B filters under vacuum, and washed three times with 3 mL of ice-cold buffer (HEPES 25, pH 7.4, MgCl2 10 and NaCl 100). Filters were dried and mixed with scintillant, and counted for ^35S activity using a β-counter. Agonist-induced GTP γ^35S binding was obtained by subtracting that in the absence of agonist. Binding data were analyzed using a non-linear regression method. In case of antagonist assay, the reaction mixture contained 10 nM S1P in the presence of test antagonist at concentrations ranging from 0.08 to 5000 nM.

T1 sequence (P21453 whole entry): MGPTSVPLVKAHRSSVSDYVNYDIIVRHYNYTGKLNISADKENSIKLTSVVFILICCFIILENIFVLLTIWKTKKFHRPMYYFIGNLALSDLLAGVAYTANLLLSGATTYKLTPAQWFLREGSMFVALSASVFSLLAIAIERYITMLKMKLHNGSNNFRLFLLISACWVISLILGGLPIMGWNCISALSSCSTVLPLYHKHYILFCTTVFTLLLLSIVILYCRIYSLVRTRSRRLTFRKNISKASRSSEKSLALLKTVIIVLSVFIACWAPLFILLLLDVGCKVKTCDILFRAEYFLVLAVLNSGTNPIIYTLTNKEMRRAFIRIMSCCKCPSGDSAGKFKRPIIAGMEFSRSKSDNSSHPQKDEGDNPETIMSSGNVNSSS

EC50: 57 nM
Structure (SMILES): CCCN1N=C(COc2ccc(CNCCCP(=O)(O)O)cc2C)CC1c1ccccc1 (stereo not shown) [Compound 1, [3-({3-Methyl-4-[(5-phenyl-1-propyl-4,5-dihydro-1H-pyrazol-3-yl)methoxy]benzyl}amino)propyl]phosphonic acid]
